In US8258134B2, “Pyridazinone glucokinase activators” (Hoffmann-La Roche Inc., priority 2008, dated 2012):

Columns and labels:
[1] = molecular target: T1, Recombinant human liver GK1 (GST-GK) (Homo sapiens, UniProt P35557); assay: Glucokinase in vitro assay (G6PDH-coupled NADH generation, OD340); type: biochemical; details: 5 mM D-glucose; for SC1.5 average (concentration of activator that produced a 50% increase in the activity of GK): 30° C., pH 7.1, 10% DMSO
T1 construct: made in house; host or cells: E. coli
T1 sequence (P35557 1-466 isoform P35557-2): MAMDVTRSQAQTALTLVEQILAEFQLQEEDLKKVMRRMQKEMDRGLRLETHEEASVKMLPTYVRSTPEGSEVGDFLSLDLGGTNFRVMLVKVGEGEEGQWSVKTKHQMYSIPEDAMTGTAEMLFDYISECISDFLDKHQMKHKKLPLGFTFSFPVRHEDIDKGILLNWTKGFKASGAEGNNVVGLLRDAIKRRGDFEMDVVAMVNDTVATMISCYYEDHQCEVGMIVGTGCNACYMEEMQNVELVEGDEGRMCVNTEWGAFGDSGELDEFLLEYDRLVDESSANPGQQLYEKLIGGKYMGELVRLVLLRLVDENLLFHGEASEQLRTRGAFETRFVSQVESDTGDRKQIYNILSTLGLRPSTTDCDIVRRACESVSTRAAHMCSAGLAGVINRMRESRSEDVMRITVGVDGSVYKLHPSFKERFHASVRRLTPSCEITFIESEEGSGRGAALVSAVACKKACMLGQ
How it was run: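 Activation readout is SC1.5, the activator concentration raising GK rate (OD340/min) 50% above 10% DMSO controls. The coupled reaction used GST-GK1 from E. coli, 5 mM glucose, 1 mM ATP, 1.8 mM NAD and 25 mM Hepes pH 7.1 at 30° C. Enzyme was added after a 10 min compound pre-incubation.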

Lean C57BL/6J mice = assay: Glucokinase activator in vivo screen, blood glucose in lean mice; details: Mus musculus, vs control at 4 hours post 50 mg/kg oral dose, two hour fast, read-out: % glucose lowering @ 4 H
Method: Glucokinase Activator in vivo Screen Protocol in Lean and Diet Induced Obese Mice: Lean or Diet-induced Obese (DIO) C57BL/6J mice were orally dosed via gavage with Glucokinase (GK) activator following a two hour fasting period. Blood glucose determinations were made at various (e.g. 0, 1, 2, 4 and 8 hours post-oral gavage) times during the study.
C57Bl/6J mice were obtained from Jackson Laboratory (Bar Harbor, Me.) and were maintained in a light-dark cycle with lights on from 0600-1800 hr. For studies in lean mice, the mice were received at age ten weeks and given ad libitum access to control diet (LabDiet 5001 chow, PMI Nutrition, Brentwood, Mo.), and were at least age 11 weeks at the time of study. For studies in the DIO model, the mice were received at age five weeks and given ad libitum access to Bio-Serv F3282 High Fat Diet (Frenchtown, N.J.), and were at least age 16 weeks at the time of study. The experiments were conducted during the light phase of the light-dark cycle. Mice (n=6) are weighed and fasted for a two hour period prior to oral treatment. GK activators are formulated in Gelucire vehicle (Ethanol:Gelucire44/14:PEG400q.s. 4:66:30 v/w/v. For studies in lean mice, the mice were dosed orally with 5.0 μL per gram of body weight (i.e. 5 ml/kg×10.0 mg/ml formulation to equal a 50 mg/kg dose). For studies in DIO mice, the mice were dosed orally with 5.0 μL per gram of body weight (i.e. 5.0 ml/kg×5 mg/ml formulation to equal a 25 mg/kg dose). Immediately prior to dosing, a pre-dose (time zero) blood glucose reading was acquired by snipping off a small portion of the animal's tail and collecting 15 μL blood into a heparinized capillary tube for analysis. Following GK activator administration, additional blood glucose readings were taken at various time points post dose from the same tail wound. Results were interpreted by comparing the mean blood glucose values of vehicle treated mice with GK activator treated mice over the study period.
The Table below provides data for % glucose lowering of a representative number of compounds of the present invention vs control at 4 hours post 50 mg/kg dose in lean C57BL/6J mice: […]

Structure (SMILES) | SC1.5 average (concentration of activator that produced a 50% increase in the activity of GK) [1] [µM] | change in vivo at 50 mg/kg (Lean C57BL/6J mice) [%] | fold activation @ 30 uM ([1]; 30 uM test compound) [fold]
CC(C)(O)Cn1ccc(NC(=O)C(CC2CCCC2)n2ncc(Oc3cccc4c3CCCC4)cc2=O)n1 (centres unmarked) [Example 17, 3-Cyclopentyl-N-[1-(2-hydroxy-2-methyl-propyl)-1H-pyrazol-3-yl]-2-[6-oxo-4-(5,6,7,8-tetrahydro-naphthalen-1-yloxy)-6H-pyridazin-1-yl]-propionamide] | 0.113 | -35.2 | –
Cc1ccccc1Oc1cnn(C(CC2CCCC2)C(=O)Nc2ccn(CC(C)(C)O)n2)c(=O)c1 (centres unmarked) [Example 24, 3-Cyclopentyl-N-[1-(2-hydroxy-2-methyl-propyl)-1H-pyrazol-3-yl]-2-(6-oxo-4-o-tolyloxy-6H-pyridazin-1-yl)-propionamide] | 0.174 | -62.1 | –
CC(C)(O)Cn1ccc(NC(=O)C(CC2CCCC2)n2ncc(Oc3c(F)cccc3F)cc2=O)n1 (centres unmarked) [Example 36, 3-Cyclopentyl-2-[4-(2,6-difluoro-phenoxy)-6-oxo-6H-pyridazin-1-yl]-N-[1-(2-hydroxy-2-methyl-propyl)-1H-pyrazol-3-yl]-propionamide] | 0.063 | -60.9 | –
CC(C)(O)Cn1ccc(NC(=O)C(CC2CCCC2)n2ncc(Oc3ccccc3C(F)(F)F)cc2=O)n1 (centres unmarked) [Example 11, 3-Cyclopentyl-N-[1-(2-hydroxy-2-methyl-propyl)-1H-pyrazol-3-yl]-2-[6-oxo-4-(2-trifluoromethyl-phenoxy)-6H-pyridazin-1-yl]-propionamide] | 0.206 | -48.9 | –
CC(C)(O)Cn1ccc(NC(=O)C(CC2CCCC2)n2ncc(OC3CCCC3)cc2=O)n1 (centres unmarked) [Example 8, 3-Cyclopentyl-2-(4-cyclopentyloxy-6-oxo-6H-pyridazin-1-yl)-N-[1-(2-hydroxy-2-methyl-propyl)-1H-pyrazol-3-yl]-propionamide] | 1.323 | -5.6 | –
Cn1ccc(NC(=O)C(CC2CCCC2)n2ncc(Oc3ccccc3C(F)(F)F)cc2=O)n1 (centres unmarked) [Example 14, 3-Cyclopentyl-N-(1-methyl-1H-pyrazol-3-yl)-2-[6-oxo-4-(2-trifluoromethyl-phenoxy)-6H-pyridazin-1-yl]-propionamide] | 0.256 | -46.7 | –
CC(C)(O)Cn1ccc(NC(=O)C(CC2CCCC2)n2ncc(Cc3cccc(C(F)(F)F)c3)cc2=O)n1 (centres unmarked) [Example 47, 3-Cyclopentyl-N-[1-(2-hydroxy-2-methyl-propyl)-1H-pyrazol-3-yl]-2-[6-oxo-4-(3-trifluoromethyl-benzyl)-6H-pyridazin-1-yl]-propionamide] | 1.366 | – | –
CC(C)CC(C(=O)Nc1ccn(C[C@@H](O)CO)n1)n1ncc(Oc2ccccc2Cl)cc1=O (stereo partly drawn) [Example 137, 2-[4-(2-Chloro-phenoxy)-6-oxo-6H-pyridazin-1-yl]-4-methyl-pentanoic acid [1-((R)-2,3-dihydroxy-propyl)-1H-pyrazol-3-yl]-amide] | 0.731 | – | –
CN(c1ccccc1)c1cnn(C(CC2CCCC2)C(=O)Nc2ccn(CC(C)(C)O)n2)c(=O)c1 (centres unmarked) [Example 77, 3-Cyclopentyl-N-[1-(2-hydroxy-2-methyl-propyl)-1H-pyrazol-3-yl]-2-[4-(methyl-phenyl-amino)-6-oxo-6H-pyridazin-1-yl]-propionamide] | 21.07 | – | –
CC(C)(O)Cn1ccc(NC(=O)C(CC2CCCC2)n2ncc(Oc3ccccc3N3CCCC3)cc2=O)n1 (centres unmarked) [Example 26, 3-Cyclopentyl-N-[1-(2-hydroxy-2-methyl-propyl)-1H-pyrazol-3-yl]-2-[6-oxo-4-(2-pyrrolidin-1-yl-phenoxy)-6H-pyridazin-1-yl]-propionamide] | 0.196 | – | –
CC(C)(O)Cn1ccc(NC(=O)[C@@H](CC2CCCC2)n2ncc(Oc3c(F)cccc3F)cc2=O)n1 [Example 36B, (R)-3-Cyclopentyl-2-[4-(2,6-difluoro-phenoxy)-6-oxo-6H-pyridazin-1-yl]-N-[1-(2-hydroxy-2-methyl-propyl)-1H-pyrazol-3-yl]-propionamide] | 1.596 | – | –
CC(C)(O)Cn1ccc(NC(=O)C(CC2CCCC2)n2ncc(Sc3ccccc3)cc2=O)n1 (centres unmarked) [Example 123, 3-Cyclopentyl-N-[1-(2-hydroxy-2-methyl-propyl)-1H-pyrazol-3-yl]-2-(6-oxo-4-phenylsulfanyl-6H-pyridazin-1-yl)-propionamide] | 0.441 | – | –
CC(C)(O)Cn1ccc(NC(=O)[C@H](CC2CCCC2)n2ncc(Oc3ccccc3C(F)(F)F)cc2=O)n1 [Example 11A, (S)-3-Cyclopentyl-N-[1-(2-hydroxy-2-methyl-propyl)-1H-pyrazol-3-yl]-2-[6-oxo-4-(2-trifluoromethyl-phenoxy)-6H-pyridazin-1-yl]-propionamide] | 0.099 | – | –
O=C(Nc1ccn(C[C@H](O)CO)n1)[C@@H](CC1CCCC1)n1ncc(Oc2c(F)cccc2F)cc1=O [Example 65B, (R)-3-Cyclopentyl-2-[4-(2,6-difluoro-phenoxy)-6-oxo-6H-pyridazin-1-yl]-N-[1-((S)-2,3-dihydroxy-propyl)-1H-pyrazol-3-yl]-propionamide] | 3.148 | – | –
CC(C)(O)Cn1ccc(NC(=O)C(CC2CCCC2)n2ncc(Oc3ccccc3C(C)(C)C)cc2=O)n1 (centres unmarked) [Example 90, 2-[4-(2-tert-Butyl-phenoxy)-6-oxo-6H-pyridazin-1-yl]-3-cyclopentyl-N-[1-(2-hydroxy-2-methyl-propyl)-1H-pyrazol-3-yl]-propionamide] | 0.5 | – | –
CC(C)(O)Cn1ccc(NC(=O)[C@@H](CC2CCCC2)n2ncc(Oc3cccc(F)c3F)cc2=O)n1 [Example 31B, (R)-3-Cyclopentyl-2-[4-(2,3-difluoro-phenoxy)-6-oxo-6H-pyridazin-1-yl]-N-[1-(2-hydroxy-2-methyl-propyl)-1H-pyrazol-3-yl]-propionamide] | 15.901 | – | –
CC(=O)OC(C)Cn1nc(NC(=O)C(CC2CCOCC2)n2ncc(Oc3c(F)cccc3F)cc2=O)cc1C (centres unmarked) [Example 131, Acetic acid 2-{3-[2-[4-(2,6-difluoro-phenoxy)-6-oxo-6H-pyridazin-1-yl]-3-(tetrahydro-pyran-4-yl)-propionylamino]-5-methyl-pyrazol-1-yl}-1-methyl-ethyl ester] | > 30 | – | 1.18
CC(C)(O)Cn1ccc(NC(=O)C(CC2CCOCC2)n2ncc(Oc3ccccc3Cl)cc2=O)n1 (centres unmarked) [Example 135, 2-[4-(2-Chloro-phenoxy)-6-oxo-6H-pyridazin-1-yl]-N-[1-(2-hydroxy-2-methyl-propyl)-1H-pyrazol-3-yl]-3-(tetrahydro-pyran-4-yl)-propionamide] | 0.235 | – | –
O=C(Nc1ccn(CCO)n1)[C@@H](CC1CCCC1)n1ncc(Oc2c(F)cccc2F)cc1=O [Example 60B, (R)-3-Cyclopentyl-2-[4-(2,6-difluoro-phenoxy)-6-oxo-6H-pyridazin-1-yl]-N-[1-(2-hydroxy-ethyl)-1H-pyrazol-3-yl]-propionamide] | 1.942 | – | –
